Columns and labels:
[1] = test system: EKVX; experiment: cells; format: cell-based; settings: Homo sapiens, 10 μM, read-out: growth inhibition % (GI%)
[2] = test system: OVCAR-5; experiment: cells; format: cell-based; settings: Homo sapiens; OVCAR-5; 10 μM; read-out: growth inhibition % (GI%)
[3] = test system: LOX IMIV; experiment: cells; format: cell-based; settings: Homo sapiens, 60 cell; LOX IMIV; 10 μM; read-out: growth inhibition % (GI%)
[4] = test system: UO-31; experiment: cells; format: cell-based; settings: Homo sapiens; UO-31; 10 μM; read-out: growth inhibition % (GI%)
[5] = test system: MOLT-4; experiment: cells; format: cell-based; settings: Homo sapiens; MOLT-4; 10 μM; read-out: growth inhibition % (GI%)
[6] = test system: A549/ATCC; experiment: cells; format: cell-based; settings: Homo sapiens; A549/ATCC; 10 μM; read-out: growth inhibition % (GI%)
[7] = test system: SF-268; experiment: cells; format: cell-based; settings: Homo sapiens; SF-268; 10 μM; read-out: growth inhibition % (GI%)
[8] = test system: HCT-116; experiment: cells; format: cell-based; settings: Homo sapiens; HCT-116; 10 μM; read-out: growth inhibition % (GI%)
[9] = test system: SK-OV-3; experiment: cells; format: cell-based; settings: Homo sapiens; SK-OV-3; 10 μM; read-out: growth inhibition % (GI%)
[10] = test system: CCRF-CEM; experiment: cells; format: cell-based; settings: Homo sapiens, 10 μM, read-out: growth inhibition % (GI%)
[11] = test system: DU-145; experiment: cells; format: cell-based; settings: Homo sapiens; DU-145; 10 μM; read-out: growth inhibition % (GI%)
[12] = test system: SK-MEL-28; experiment: cells; format: cell-based; settings: Homo sapiens; SK-MEL-28; 10 μM; read-out: growth inhibition % (GI%)
[13] = test system: SK-MEL-2; experiment: cells; format: cell-based; settings: Homo sapiens; SK-MEL-2; 10 μM; read-out: growth inhibition % (GI%)
[14] = test system: HT29; experiment: cells; format: cell-based; settings: Homo sapiens, HT-29; HT29; 10 μM; read-out: growth inhibition % (GI%)
[15] = test system: HOP-92; experiment: cells; format: cell-based; settings: Homo sapiens; HOP-92; 10 μM; read-out: growth inhibition % (GI%)
[16] = test system: A498; experiment: cells; format: cell-based; settings: Homo sapiens; A498; 10 μM; read-out: growth inhibition % (GI%)
[17] = test system: ACHN; experiment: cells; format: cell-based; settings: Homo sapiens, 10 μM, read-out: growth inhibition % (GI%)
[18] = test system: IGROV1; experiment: cells; format: cell-based; settings: Homo sapiens, IGROV-1; IGROV1; 10 μM; read-out: growth inhibition % (GI%)
[19] = test system: MALME-3M; experiment: cells; format: cell-based; settings: Homo sapiens; MALME-3M; 10 μM; read-out: growth inhibition % (GI%)
[20] = test system: SW-620; experiment: cells; format: cell-based; settings: Homo sapiens; SW-620; 10 μM; read-out: growth inhibition % (GI%)
[21] = test system: HS 578T; experiment: cells; format: cell-based; settings: Homo sapiens; HS 578T; 10 μM; read-out: growth inhibition % (GI%)
[22] = test system: SR; experiment: cells; format: cell-based; settings: Homo sapiens, 10 μM, read-out: growth inhibition % (GI%)
[23] = test system: HOP-62; experiment: cells; format: cell-based; settings: Homo sapiens; HOP-62; 10 μM; read-out: growth inhibition % (GI%)
[24] = test system: T-47D; experiment: cells; format: cell-based; settings: Homo sapiens, T47D; T-47D; 10 μM; read-out: growth inhibition % (GI%)
[25] = test system: COLO-205; experiment: cells; format: cell-based; settings: Homo sapiens; COLO-205; 10 μM; read-out: growth inhibition % (GI%)
[26] = test system: 786-0; experiment: cells; format: cell-based; settings: Homo sapiens; 786-0; 10 μM; read-out: growth inhibition % (GI%)
[27] = test system: BT-549; experiment: cells; format: cell-based; settings: Homo sapiens; BT-549; 10 μM; read-out: growth inhibition % (GI%)
[28] = test system: RPMI-8226; experiment: cells; format: cell-based; settings: Homo sapiens; RPMI-8226; 10 μM; read-out: growth inhibition % (GI%)
[29] = test system: OVCAR-8; experiment: cells; format: cell-based; settings: Homo sapiens; OVCAR-8; 10 μM; read-out: growth inhibition % (GI%)
[30] = test system: MDA-MB-435; experiment: cells; format: cell-based; settings: Homo sapiens; MDA-MB-435; 10 μM; read-out: growth inhibition % (GI%)
[31] = test system: SF-539; experiment: cells; format: cell-based; settings: Homo sapiens; SF-539; 10 μM; read-out: growth inhibition % (GI%)
[32] = test system: NCI-H322M; experiment: cells; format: cell-based; settings: Homo sapiens, 10 μM, read-out: growth inhibition % (GI%)
[33] = test system: MDA-MB-468; experiment: NCI 60 cell line antiproliferative screening (SRB), Breast cancer; settings: Homo sapiens, MDA-MB-468, read-out: growth inhibition % (GI%)
[34] = test system: MCF7; experiment: cells; format: cell-based; settings: Homo sapiens; MCF7; 10 μM; read-out: growth inhibition % (GI%)
[35] = test system: NCI-H460; experiment: cells; format: cell-based; settings: Homo sapiens; NCI-H460; 10 μM; read-out: growth inhibition % (GI%)
[36] = test system: SNB-19; experiment: cells; format: cell-based; settings: Homo sapiens; SNB-19; 10 μM; read-out: growth inhibition % (GI%)
[37] = test system: U251; experiment: cells; format: cell-based; settings: Homo sapiens, U-251; U251; 10 μM; read-out: growth inhibition % (GI%)
[38] = test system: SN12C; experiment: cells; format: cell-based; settings: Homo sapiens, 10 μM, read-out: growth inhibition % (GI%)
[39] = test system: SF-295; experiment: cells; format: cell-based; settings: Homo sapiens; SF-295; 10 μM; read-out: growth inhibition % (GI%)
[40] = test system: panel of 60 tumour cell lines; experiment: NCI 60 cell line antiproliferative screening (SRB), whole panel or subpanels (means, ranges, words); format: cell-based, human; settings: for antiproliferative activity against all tested cell lines: 10 μM single dose; for inhibition at 10 µM: Homo sapiens, 60 cell, mean over the cell line panel, read-out: Mean growth inhibition % (mean GI%)
[41] = test system: UACC-62; experiment: cells; format: cell-based; settings: Homo sapiens; UACC-62; 10 μM; read-out: growth inhibition % (GI%)
[42] = test system: PC-3; experiment: cells; format: cell-based; settings: Homo sapiens; PC-3; 10 μM; read-out: growth inhibition % (GI%)
[43] = test system: MDA-MB-231/ATCC; experiment: NCI 60 cell line antiproliferative screening (SRB), Breast cancer; format: cell-based; settings: Homo sapiens, MDA-MB-231, read-out: growth inhibition % (GI%)
[44] = test system: KM12; experiment: cells; format: cell-based; settings: Homo sapiens; KM12; 10 μM; read-out: growth inhibition % (GI%)
[45] = test system: NCI/ADR-RES; experiment: cells; format: cell-based; settings: Homo sapiens, 10 μM, read-out: growth inhibition % (GI%)
[46] = test system: K-562; experiment: cells; format: cell-based; settings: Homo sapiens, K562; K-562; 10 μM; read-out: growth inhibition % (GI%)
[47] = test system: SK-MEL-5; experiment: cells; format: cell-based; settings: Homo sapiens; SK-MEL-5; 10 μM; read-out: growth inhibition % (GI%)

## O=C(CSc1nc2ccccc2c(=O)n1-c1ccc(Cl)cc1)NN=Cc1ccc(N2CCOCC2)cc1 [6k, 2-((3–(4-chlorophenyl)-4-oxo-3,4-dihydroquinazolin-2-yl)thio)-N'-(4-morpholinobenzylidene) acetohydrazide]
[1]
  inhibition at 10 µM: < 15%
[2]
  inhibition at 10 µM: < 15%
[3]
  inhibition at 10 µM: < 15%
[4]
  inhibition at 10 µM: < 15%
[5]
  inhibition at 10 µM: < 15%
[6]
  inhibition at 10 µM: < 15%
[7]
  inhibition at 10 µM: < 15%
[8]
  inhibition at 10 µM: < 15%
[9]
  inhibition at 10 µM: < 15%
[10]
  inhibition at 10 µM: < 15%
[11]
  inhibition at 10 µM: < 15%
[12]
  inhibition at 10 µM: < 15%
[13]
  inhibition at 10 µM: < 15%
[14]
  inhibition at 10 µM: < 15%
[15]
  inhibition at 10 µM: < 15%
[16]
  inhibition at 10 µM: < 15%
[17]
  inhibition at 10 µM: < 15%
[18]
  inhibition at 10 µM: < 15%
[19]
  inhibition at 10 µM: < 15%
[20]
  inhibition at 10 µM: < 15%
[21]
  inhibition at 10 µM: < 15%
[22]
  inhibition at 10 µM: < 15%
[23]
  inhibition at 10 µM: < 15%
[24]
  inhibition at 10 µM: < 15%
[25]
  inhibition at 10 µM: < 15%
[26]
  inhibition at 10 µM: < 15%
[27]
  inhibition at 10 µM: < 15%
[28]
  inhibition at 10 µM: < 15%
[29]
  inhibition at 10 µM: < 15%
[30]
  inhibition at 10 µM: < 15%
[31]
  inhibition at 10 µM: < 15%
[32]
  inhibition at 10 µM: < 15%
[33]
  inhibition at 10 µM: < 15%
[34]
  inhibition at 10 µM: < 15%
[35]
  inhibition at 10 µM: < 15%
[36]
  inhibition at 10 µM: < 15%
[37]
  inhibition at 10 µM: < 15%
[38]
  inhibition at 10 µM: < 15%
[39]
  inhibition at 10 µM: < 15%
[40]
  antiproliferative activity against all tested cell lines: did not show activity
  inhibition at 10 µM: < 0%
[41]
  inhibition at 10 µM: < 15%
[42]
  inhibition at 10 µM: < 15%
[43]
  inhibition at 10 µM: < 15%
[44]
  inhibition at 10 µM: < 15%
[45]
  inhibition at 10 µM: < 15%
[46]
  inhibition at 10 µM: < 15%
[47]
  inhibition at 10 µM: < 15%

## CN1CCN(c2ccc(C=NNC(=O)CSc3nc4ccccc4c(=O)n3-c3ccc(Cl)cc3)cc2)CC1 [6l, 2-((3–(4-chlorophenyl)-4-oxo-3,4-dihydroquinazolin-2-yl)thio)-N'-(4–(4-methylpiperazin-1-yl)benzylidene)acetohydrazide]
[1]
  inhibition at 10 µM: < 15%
[2]
  inhibition at 10 µM: < 15%
[3]
  inhibition at 10 µM: 15.2%
[4]
  inhibition at 10 µM: < 15%
[5]
  inhibition at 10 µM: < 15%
[6]
  inhibition at 10 µM: < 15%
[7]
  inhibition at 10 µM: < 15%
[8]
  inhibition at 10 µM: < 15%
[9]
  inhibition at 10 µM: < 15%
[10]
  inhibition at 10 µM: < 15%
[11]
  inhibition at 10 µM: < 15%
[12]
  inhibition at 10 µM: < 15%
[13]
  inhibition at 10 µM: < 15%
[14]
  inhibition at 10 µM: < 15%
[15]
  inhibition at 10 µM: < 15%
[16]
  inhibition at 10 µM: 32.6%
[17]
  inhibition at 10 µM: < 15%
[18]
  inhibition at 10 µM: < 15%
[19]
  inhibition at 10 µM: < 15%
[20]
  inhibition at 10 µM: < 15%
[21]
  inhibition at 10 µM: < 15%
[22]
  inhibition at 10 µM: < 15%
[23]
  inhibition at 10 µM: < 15%
[24]
  inhibition at 10 µM: < 15%
[25]
  inhibition at 10 µM: < 15%
[26]
  inhibition at 10 µM: < 15%
[27]
  inhibition at 10 µM: < 15%
[28]
  inhibition at 10 µM: < 15%
[29]
  inhibition at 10 µM: < 15%
[30]
  inhibition at 10 µM: < 15%
[31]
  inhibition at 10 µM: < 15%
[32]
  inhibition at 10 µM: < 15%
[33]
  inhibition at 10 µM: < 15%
[34]
  inhibition at 10 µM: < 15%
[35]
  inhibition at 10 µM: < 15%
[36]
  inhibition at 10 µM: < 15%
[37]
  inhibition at 10 µM: < 15%
[38]
  inhibition at 10 µM: < 15%
[39]
  inhibition at 10 µM: < 15%
[40]
  antiproliferative activity against all tested cell lines: did not show activity
  inhibition at 10 µM: < 0%
[41]
  inhibition at 10 µM: < 15%
[42]
  inhibition at 10 µM: < 15%
[43]
  inhibition at 10 µM: < 15%
[44]
  inhibition at 10 µM: < 15%
[45]
  inhibition at 10 µM: < 15%
[46]
  inhibition at 10 µM: < 15%
[47]
  inhibition at 10 µM: < 15%

— publication PMC9518264, “Design and synthesis of novel quinazolinone-based derivatives as EGFR inhibitors with antitumor activity” (Journal of Enzyme Inhibition and Medicinal Chemistry, 2022)
